From BindingDB's records for doi:10.1124/jpet.104.066787 (Georgetown University, 2004)
Where “and” joins values, the source holds several entries; their conditions need not be identical. Equal values may be shown once.

What was measured:
[1] = biological target: Neuronal acetylcholine receptor subunit alpha-2 (Rattus norvegicus, UniProt P12389)
[2] = biological target: Neuronal acetylcholine receptor subunit alpha-4 (Rattus norvegicus, UniProt P09483)
[3] = biological target: Neuronal acetylcholine receptor subunit alpha-3 (Rattus norvegicus, UniProt P04757)
Neuronal acetylcholine receptor subunit alpha-3, sequence (P04757 whole entry): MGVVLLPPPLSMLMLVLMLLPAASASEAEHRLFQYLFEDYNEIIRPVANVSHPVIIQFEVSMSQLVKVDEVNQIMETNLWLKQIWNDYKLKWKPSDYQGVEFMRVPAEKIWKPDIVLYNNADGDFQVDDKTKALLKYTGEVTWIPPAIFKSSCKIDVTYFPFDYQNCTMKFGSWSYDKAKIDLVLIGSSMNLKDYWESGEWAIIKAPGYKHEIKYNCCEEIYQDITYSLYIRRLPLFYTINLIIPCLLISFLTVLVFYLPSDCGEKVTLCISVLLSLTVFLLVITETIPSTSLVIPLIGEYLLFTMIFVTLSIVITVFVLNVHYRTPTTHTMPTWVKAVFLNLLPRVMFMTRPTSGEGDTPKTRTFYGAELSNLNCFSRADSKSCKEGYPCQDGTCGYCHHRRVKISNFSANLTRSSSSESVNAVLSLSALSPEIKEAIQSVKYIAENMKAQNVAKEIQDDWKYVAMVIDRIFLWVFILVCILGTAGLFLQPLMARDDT

[4] = biological target: Nicotinic acetylcholine receptor (Rattus norvegicus)

Neuronal acetylcholine receptor subunit alpha-2, sequence (P12389 whole entry): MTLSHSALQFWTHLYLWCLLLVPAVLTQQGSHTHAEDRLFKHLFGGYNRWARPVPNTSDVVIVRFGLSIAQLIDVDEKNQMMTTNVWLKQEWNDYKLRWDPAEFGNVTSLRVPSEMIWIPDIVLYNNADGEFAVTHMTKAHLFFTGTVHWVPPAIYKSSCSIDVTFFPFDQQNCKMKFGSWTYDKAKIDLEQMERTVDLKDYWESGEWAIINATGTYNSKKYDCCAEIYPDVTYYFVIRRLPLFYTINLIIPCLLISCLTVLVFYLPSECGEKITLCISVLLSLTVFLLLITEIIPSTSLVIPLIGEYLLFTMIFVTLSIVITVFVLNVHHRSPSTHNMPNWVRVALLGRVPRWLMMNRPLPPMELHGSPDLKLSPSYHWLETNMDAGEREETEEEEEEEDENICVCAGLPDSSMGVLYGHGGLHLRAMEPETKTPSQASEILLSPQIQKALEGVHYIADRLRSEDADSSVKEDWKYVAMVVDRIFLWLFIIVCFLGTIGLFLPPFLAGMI
Neuronal acetylcholine receptor subunit alpha-4, sequence (P09483 whole entry): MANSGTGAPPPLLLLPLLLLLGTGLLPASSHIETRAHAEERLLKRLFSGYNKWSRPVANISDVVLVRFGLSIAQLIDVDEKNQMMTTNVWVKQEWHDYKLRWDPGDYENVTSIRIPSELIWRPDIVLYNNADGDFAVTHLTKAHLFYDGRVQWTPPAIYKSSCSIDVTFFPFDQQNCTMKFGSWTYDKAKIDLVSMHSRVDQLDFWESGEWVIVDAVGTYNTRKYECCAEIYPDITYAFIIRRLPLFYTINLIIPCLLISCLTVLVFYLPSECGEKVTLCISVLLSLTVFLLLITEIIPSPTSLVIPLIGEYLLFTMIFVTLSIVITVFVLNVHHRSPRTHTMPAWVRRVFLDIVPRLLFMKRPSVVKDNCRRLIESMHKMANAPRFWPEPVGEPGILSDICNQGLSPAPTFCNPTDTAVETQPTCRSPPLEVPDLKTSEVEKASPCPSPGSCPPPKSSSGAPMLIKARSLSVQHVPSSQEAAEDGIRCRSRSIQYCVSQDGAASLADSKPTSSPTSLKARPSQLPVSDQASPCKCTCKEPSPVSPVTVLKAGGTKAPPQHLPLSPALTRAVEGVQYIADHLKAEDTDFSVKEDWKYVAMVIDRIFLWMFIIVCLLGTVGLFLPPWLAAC

Row | Compound | Ki [1] | Ki [2] | Ki [3] | Ki [4] [nM]
1 | CCN1CC2(COC(=O)c3ccccc3-n3c(O)cc(C)c3O)CCC(OC)C34C5CC6C(OC)CC(O)(C5C6OC)C(O)(C(OC)C23)C14 (stereo unspecified) [CAS_21019-30-7] | > 10000 nM | > 10000 nM and 6400 nM | – | –
2 | CC(=O)OCC[N+](C)(C)C [2-acetoxyethyl(trimethyl)ammonium;perchlorate] | 11 nM | – | – | –
3 | CO[C@H]1CC=C2CCN3CCC4=C(CC(=O)OC4)[C@]23C1 | 6200 nM and > 10000 nM | – | 3800 nM and > 10000 nM | –
4 | O=c1cccc2n1CC1CNCC2C1 (stereo unspecified) [CAS_485-35-8] | 1.1 nM and 5.4 nM | 1.5 nM and 2.1 nM | 37 nM and 220 nM | –
5 | Ic1ccc(C2CC3CCC2N3)cn1 (stereo unspecified) [IPH] | 0.11 nM and 0.15 nM | 0.15 nM | 0.18 nM and 0.98 nM | 0.33
6 | C[N+](C)(C)CCO [2-hydroxy-N,N,N-trimethylethanaminium] | > 10000 nM | > 10000 nM | > 10000 nM | –
7 | C[N+](C)(C)CCOC(N)=O [(2-Hydroxyethyl)trimethyl ammonium chloride carbamate] | 260 nM and 930 nM | 590 nM and 1100 nM | 1100 nM and 4700 nM | –
8 | CNC1(C)C2CCC(C2)C1(C)C (stereo unspecified) [Methyl-(2,3,3-trimethyl-bicyclo[2.2.1]hept-2-yl)-amine(Mecamylamine)] | > 10000 nM | > 10000 nM | – | –
9 | c1cncc(OCC2CCN2)c1 (stereo unspecified) [A-85380] | 18 nM | – | – | –
